Assay results: US20260285850A1, “SUBSTITUTED OXAZOLIDINONES AND IMIDAZOLINONES AS HERBICIDES” (FMC CORPORATION, priority 2023, published 2026)

Legend:
Assay type in all cases: in vivo
[1] = system: barnyardgrass (Echinochloa crus-galli); experiment: Test A preemergence soil spray, visual injury rating 0-100; conditions: 10 days
How it was run: (§1)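 Seeds sown in loam-sand blend got a preemergence directed soil spray, or emerged plants (2-10 cm, one- to two-leaf) got a postemergence spray, of compound in non-phytotoxic solvent with surfactant. After 10 days in greenhouse, injury rated visually versus untreated controls on a 0 (no effect) to 100 (complete control) scale.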

[2] = system: blackgrass (Alopecurus myosuroides); experiment: as above; conditions: 10 days
How it was run: as §1

[3] = system: corn (Zea mays); experiment: as above; conditions: 10 days
How it was run: as §1

[4] = system: green foxtail (Setaria viridis); experiment: as above; conditions: 10 days
How it was run: as §1

[5] = system: kochia (Bassia scoparia); experiment: as above; conditions: 10 days
How it was run: as §1

[6] = system: oat, wild (wild oat, Avena fatua); experiment: as above; conditions: 10 days
How it was run: as §1

[7] = system: palmer (palmer amaranth, palmer pigweed, Amaranthus palmeri); experiment: as above; conditions: 10 days
How it was run: as §1

[8] = system: ragweed (common ragweed, Ambrosia artemisiifolia); experiment: as above; conditions: 10 days
How it was run: as §1

[9] = system: ryegrass, Italian (italian ryegrass, Lolium multiflorum); experiment: as above; conditions: 10 days
How it was run: as §1

[10] = system: soybean (Glycine max); experiment: as above; conditions: 10 days
How it was run: as §1

[11] = system: wheat (Triticum aestivum); experiment: as above; conditions: 10 days
How it was run: as §1

[12] = system: barnyardgrass (Echinochloa crus-galli); experiment: Test A postemergence application, visual injury rating 0-100
How it was run: as §1

[13] = system: blackgrass (Alopecurus myosuroides); experiment: as above
How it was run: as §1

[14] = system: corn (Zea mays); experiment: as above
How it was run: as §1

[15] = system: galium (catchweed bedstraw, Galium aparine); experiment: as above
How it was run: as §1

[16] = system: green foxtail (Setaria viridis); experiment: as above
How it was run: as §1

[17] = system: horseweed (Erigeron canadensis); experiment: as above
How it was run: as §1

[18] = system: kochia (Bassia scoparia); experiment: as above
How it was run: as §1

[19] = system: oat, wild (wild oat, Avena fatua); experiment: as above
How it was run: as §1

[20] = system: palmer (palmer amaranth, palmer pigweed, Amaranthus palmeri); experiment: as above
How it was run: as §1

[21] = system: ragweed (common ragweed, Ambrosia artemisiifolia); experiment: as above
How it was run: as §1

[22] = system: ryegrass, Italian (italian ryegrass, Lolium multiflorum); experiment: as above
How it was run: as §1

[23] = system: soybean (Glycine max); experiment: as above
How it was run: as §1

[24] = system: wheat (Triticum aestivum); experiment: as above
How it was run: as §1

[25] = system: barnyardgrass (Echinochloa crusgalli); experiment: Test B flooded paddy test, visual plant response rating 0-100; conditions: 250 g ai/ha, Flood, applied to paddy water, evaluated after 13 days
How it was run: (§2)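 Each species was raised to two leaves before flooding to a 3 cm depth and dosing the water with compound. Injury was assessed by eye after 13 days under greenhouse conditions.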

[26] = system: ducksalad (Heteranthera limosa); experiment: as above; conditions: 250 g ai/ha, Flood, applied to paddy water, evaluated after 13 days
How it was run: as §2

[27] = system: rice (Oryza sativa); experiment: as above; conditions: 250 g ai/ha, Flood, applied to paddy water, evaluated after 13 days
How it was run: as §2

[28] = system: sedge, umbrella (small-flower umbrella sedge, Cyperus difformis); experiment: as above; conditions: 250 g ai/ha, Flood, applied to paddy water, evaluated after 13 days
How it was run: as §2

[29] = 62 g ai/ha, 0 = no effect, 100 = complete control
[30] = 62 g ai/ha, postemergence, 10 days, 0 = no effect, 100 = complete control
[31] = Postemergence, 16 g ai/ha, greenhouse 10 days, 0 no effect, 100 complete control

Question: What does the source list for COC(=O)C1CC(NC(=O)C2(C)CN(c3cc(F)cc(F)c3)C(=O)O2)C1 (stereo not shown) [Compound 130]?
Answer: Barnyardgrass plant response rating ([1]; 16 g ai/ha, 0 to 100 scale): 0; Barnyardgrass plant response rating (0-100) [1, 29]: 70; Blackgrass plant response rating ([2]; 16 g ai/ha, 0 to 100 scale): 70; Blackgrass plant response rating (0-100) [2, 29]: 90; Corn plant response rating ([3]; 16 g ai/ha, 0 to 100 scale): 10; Corn plant response rating (0-100) [3, 29]: 90; Foxtail, Green plant response rating ([4]; 16 g ai/ha, 0 to 100 scale): 50; Foxtail, Green plant response rating (0-100) [4, 29]: 90; Kochia plant response rating ([5]; 16 g ai/ha, 0 to 100 scale): 0; Kochia plant response rating (0-100) [5, 29]: 90; Oat, Wild plant response rating ([6]; 16 g ai/ha, 0 to 100 scale): 50; Oat, Wild plant response rating (0-100) [6, 29]: 90; Pigweed, Palmer plant response rating ([7]; 16 g ai/ha, 0 to 100 scale): 10; Pigweed, Palmer plant response rating (0-100) [7, 29]: 30; Ragweed plant response rating ([8]; 16 g ai/ha, 0 to 100 scale): 0; Ragweed plant response rating (0-100) [8, 29]: 0; Ryegrass, Italian plant response rating ([9]; 16 g ai/ha, 0 to 100 scale): 40; Ryegrass, Italian plant response rating (0-100) [9, 29]: 90; Soybean plant response rating ([10]; 16 g ai/ha, 0 to 100 scale): 0; Soybean plant response rating (0-100) [10, 29]: 40; Wheat plant response rating ([11]; 16 g ai/ha, 0 to 100 scale): 90; Wheat plant response rating (0-100) [11, 29]: 90; Barnyardgrass plant response rating (0-100) [12, 30]: 80; Barnyardgrass plant response rating (0 to 100 scale) [12, 31]: 70; Blackgrass plant response rating (0-100) [13, 30]: 90; Blackgrass plant response rating (0 to 100 scale) [13, 31]: 90; Corn plant response rating (0-100) [14, 30]: 100; Corn plant response rating (0 to 100 scale) [14, 31]: 100; Galium plant response rating (0-100) [15, 30]: 90; Galium plant response rating (0 to 100 scale) [15, 31]: 70; Foxtail, Green plant response rating (0-100) [16, 30]: 90; Foxtail, Green plant response rating (0 to 100 scale) [16, 31]: 90; Horseweed plant response rating (0-100) [17, 30]: 30; Horseweed plant response rating (0 to 100 scale) [17, 31]: 10; Kochia plant response rating (0-100) [18, 30]: 90; Kochia plant response rating (0 to 100 scale) [18, 31]: 80; Oat, Wild plant response rating (0-100) [19, 30]: 90; Oat, Wild plant response rating (0 to 100 scale) [19, 31]: 90; Pigweed, Palmer plant response rating (0-100) [20, 30]: 90; Pigweed, Palmer plant response rating (0 to 100 scale) [20, 31]: 80; Ragweed plant response rating (0-100) [21, 30]: 30; Ragweed plant response rating (0 to 100 scale) [21, 31]: 20; Ryegrass, Italian plant response rating (0-100) [22, 30]: 90; Ryegrass, Italian plant response rating (0 to 100 scale) [22, 31]: 70; Soybean plant response rating (0-100) [23, 30]: 70; Soybean plant response rating (0 to 100 scale) [23, 31]: 60; Wheat plant response rating (0-100) [24, 30]: 90; Wheat plant response rating (0 to 100 scale) [24, 31]: 90; Plant response rating, Barnyardgrass (0 to 100 scale, 0 is no effect and 100 is complete control) [25]: 80; Plant response rating, Ducksalad (0 to 100 scale, 0 is no effect and 100 is complete control) [26]: 100; Plant response rating, Rice (0 to 100 scale, 0 is no effect and 100 is complete control) [27]: 60; Plant response rating, Sedge, Umbrella (0 to 100 scale, 0 is no effect and 100 is complete control) [28]: 90
